Results as given in ChEMBL document CHEMBL5608195, “Identification and biological evaluation of fused tetrahydroisoquinoline derivatives as Wnt/β-catenin signaling inhibitors to suppress colorectal cancer” (Eur J Med Chem, 2024).

How the values were obtained:
HCT-116 [1] = assay: Antiproliferative activity against human HCT-116 cells assessed as inhibition rate at 20 uM incubated for 24 hrs by MTT assay relative to control; type: functional
HCT-116 [2] = assay: Antiproliferative activity against human HCT-116 cells incubated for 24 hrs by MTT assay; type: functional, cell-based; details: HCT-116, 24 h
RKO = assay: Antiproliferative activity against human RKO cells incubated for 24 hrs by MTT assay; type: functional, cell-based

IC50 (HCT-116 [2]) [µM]	Structure (SMILES)	inhibition at 20 µM (HCT-116 [1]) [%]	IC50 (RKO) [µM]
–	CC12c3cc(F)ccc3CCN1CCc1c2[nH]c2ccc(Cl)cc12 (stereo not drawn)	80.7	–
–	CC12c3cc(O)ccc3CN1CCc1c2[nH]c2ccc(Cl)cc12 (stereo not drawn)	26.9	–
–	Cc1ccc2c(c1)C1(C)c3[nH]c4ccc(Cl)cc4c3CCN1C2 (stereo not drawn)	64.6	–
–	CC12c3ccc(Cl)cc3CCN1CCc1c2[nH]c2ccc(F)cc12 (stereo not drawn)	18.4	–
–	C[C@@]12c3ccc(Cl)cc3CCN1CCc1c2[nH]c2ccc(Cl)cc12	84	–
–	C[C@]12c3ccc(Cl)cc3CCN1CCc1c2[nH]c2ccc(Cl)cc12	81	–
–	CC12c3ccccc3CCN1CCc1c2[nH]c2ccc(OCc3ccccc3)cc12 (stereo not drawn)	20.4	–
–	Cc1ccc2[nH]c3c(c2c1)CCN1CCc2cc(Cl)ccc2C31C (stereo not drawn)	22.8	–
–	COc1ccc2[nH]c3c(c2c1)CCN1CCc2cc(Cl)ccc2C31C (stereo not drawn)	66.7	–
–	COc1ccc2[nH]c3c(c2c1)CCN1CCc2ccccc2C31C (stereo not drawn)	10.9	–
–	CC12c3ccc(Cl)cc3CC(=O)N1CCc1c2[nH]c2ccc(Cl)cc12 (stereo not drawn)	70.3	–
6.36	Cc1ccc2c(c1)CCN1CCc3c([nH]c4ccc(Cl)cc34)C21C (stereo not drawn)	88.3	6.48
–	CC12c3ccccc3CCN1CCc1c2[nH]c2ccc(Br)cc12 (stereo not drawn)	3.6	–
–	CC12c3ccccc3CCN1CCc1c2[nH]c2ccc(F)cc12 (stereo not drawn)	7.8	–
–	Cc1ccc2[nH]c3c(c2c1)CCN1CCc2ccccc2C31C (stereo not drawn)	59.5	–
–	COc1ccc2[nH]c3c(c2c1)CCN1Cc2ccccc2C31C (stereo not drawn)	28.9	–
–	CC12c3ccccc3CCN1CCc1c2[nH]c2ccc(Cl)cc12 (stereo not drawn)	83.7	–
–	CC12c3ccc(Cl)cc3CCN1CCc1c2[nH]c2ccc(Br)cc12 (stereo not drawn)	3.6	–
–	CC12c3ccccc3CC(=O)N1CCc1c2[nH]c2ccccc12 (stereo not drawn)	65.2	–
6.77	CC12c3cc(Cl)ccc3CCN1CCc1c2[nH]c2ccc(Cl)cc12 (stereo not drawn)	89.1	6.84
–	CC12c3ccc(F)cc3CCN1CCc1c2[nH]c2ccc(Cl)cc12 (stereo not drawn)	88.7	–
–	Cc1ccc2c(c1)C1(C)c3[nH]c4ccccc4c3CCN1C2 (stereo not drawn)	36	–
–	Cc1ccc2[nH]c3c(c2c1)CCN1Cc2ccccc2C31C (stereo not drawn)	43.9	–
–	CC12c3ccccc3CN1CCc1c2[nH]c2ccc(Cl)cc12 (stereo not drawn)	43.8	–
–	COc1ccc2c(c1)C1(C)c3[nH]c4ccc(Cl)cc4c3CCN1CC2 (stereo not drawn)	77	–
–	CC12c3cc(F)ccc3CC(=O)N1CCc1c2[nH]c2ccc(Cl)cc12 (stereo not drawn)	49	–
7.52	Cc1ccc2c(c1)C1(C)c3[nH]c4ccc(Cl)cc4c3CCN1CC2 (stereo not drawn)	92.1	7.28
